The NIST ThermoML archive (doi:10.1021/je0602418)
“And” between values parts separate entries of the source, which are not always exact repeats. Identical values can stand only once.

Settings: for Critical pressure / Critical temperature: pulse heating method

COC(=O)CCCC(=O)OC [dimethyl pentanedioate]
Liquid
Settings	vapor or sublimation pressure
283.7 K	0.00275 kPa
286.3 K	0.00357 kPa
288.4 K	0.0043 kPa
290.5 K	0.00564 kPa
293.2 K	0.00758 kPa
293.3 K	0.00747 kPa
295.6 K	0.00958 kPa
296.2 K	0.00984 kPa
298.2 K	0.01214 kPa
298.4 K	0.01204 kPa
300.3 K	0.01479 kPa
303.2 K	0.01881 kPa
303.3 K	0.0193 kPa
305.4 K	0.02301 kPa
306.2 K	0.02388 kPa
308.2 K	0.02904 kPa
309.2 K	0.03102 kPa
310.2 K	0.03348 kPa
312.1 K	0.03995 kPa
313.2 K	0.04146 kPa
313.5 K	0.04323 kPa
315.2 K	0.05031 kPa
315.5 K	0.05126 kPa
316.2 K	0.05285 kPa
318.1 K	0.06049 kPa
318.3 K	0.06276 kPa
319.2 K	0.0664 kPa
320.2 K	0.07343 kPa
320.3 K	0.06968 kPa
321.4 K	0.07692 kPa
323.2 K	0.09072 kPa
323.3 K	0.08542 kPa and 0.09398 kPa
325.2 K	0.1033 kPa and 0.1021 kPa
327.1 K	0.1263 kPa
328.3 K	0.1276 kPa
329.2 K	0.148 kPa
330.2 K	0.1428 kPa
331.3 K	0.1646 kPa
333.1 K	0.1752 kPa
333.2 K	0.1798 kPa
335.3 K	0.1977 kPa and 0.2051 kPa
338.3 K	0.2474 kPa and 0.2598 kPa
340.2 K	0.2719 kPa
341.3 K	0.3017 kPa
343.1 K	0.3382 kPa
343.2 K	0.3425 kPa
345.2 K	0.3651 kPa
348.1 K	0.4368 kPa

Liquid
Settings	Critical pressure [kPa]	Critical temperature [K]
–	2770	682

COC(=O)CCCCCC(=O)OC [dimethyl 1,7-heptanedioate]
Liquid, Transpiration method
Settings	vapor or sublimation pressure [kPa]
291.3 K	0.0013
293.3 K	0.00161
298.3 K	0.00264
303.2 K	0.00423
308.2 K	0.00693
313.2 K	0.01073
318.2 K	0.01734
323.2 K	0.02558
328.2 K	0.03778
333.1 K	0.0547
338.2 K	0.0784
343.2 K	0.1123
348.1 K	0.1618
353.1 K	0.2251

Liquid
Settings	Critical pressure [kPa]	Critical temperature [K]
–	2370	711

COC(=O)C(=O)OC [dimethyl ethanedioate]
Transpiration method
Settings	vapor or sublimation pressure [kPa]
293.3 K, Crystal	0.04995
296.3 K, Crystal	0.06801
298.2 K, Crystal	0.07959
301.2 K, Crystal	0.1046
303.2 K, Crystal	0.1298
306.2 K, Crystal	0.178
308.2 K, Crystal	0.2104
311.2 K, Crystal	0.2873
313.2 K, Crystal	0.3372
316.2 K, Crystal	0.4466
318.3 K, Crystal	0.5545
319.2 K, Crystal	0.6006
321.2 K, Crystal	0.7191
325.3 K, Crystal	0.9657
330.4 K, Liquid	1.399
333.2 K, Liquid	1.612
335.2 K, Liquid	1.819
337.2 K, Liquid	2.022
340.3 K, Liquid	2.395
343.2 K, Liquid	2.841
345.3 K, Liquid	3.144
346.2 K, Liquid	3.25
349.2 K, Liquid	3.905
350.4 K, Liquid	4.141
352.2 K, Liquid	4.479
355.5 K, Liquid	5.325
357.2 K, Liquid	5.707
359.2 K, Liquid	6.28
360.6 K, Liquid	6.526
362.2 K, Liquid	7.181
365.2 K, Liquid	8.422

Liquid
Settings	Critical pressure [kPa]	Critical temperature [K]
–	4060	639

COC(=O)CCCCCCC(=O)OC [dimethyl octanedioate]
Liquid, Transpiration method
Settings	vapor or sublimation pressure [kPa]
293.3 K	0.00062
295.3 K	0.00077
298.3 K	0.00105
303.2 K	0.00169
308.3 K	0.00273
313.2 K	0.00451
318.1 K	0.00698
323.1 K	0.01107
328.1 K	0.01684
333.1 K	0.02524
338.1 K	0.03923
343 K	0.05566
348.1 K	0.08123
352.1 K	0.1083

Liquid
Settings	Critical pressure [kPa]	Critical temperature [K]
–	2300	723
